From article PMC3254824 (Biochemistry, 2011)

What was measured:
[1] = molecular target: T1, yThg1 (yeast Thg1, tRNA^His guanylyltransferase) (Saccharomyces cerevisiae, UniProt P53215); assay: single-turnover nucleotidyl transfer kinetics, gamma-32P ppp-tRNA; assay type: biochemical; conditions: read-out: KDapp,NTP, nucleotidyl transfer step, 15 μM enzyme, 10 mM MgCl2, pH 7.5, room temperature
T1 sequence (P53215 1-237): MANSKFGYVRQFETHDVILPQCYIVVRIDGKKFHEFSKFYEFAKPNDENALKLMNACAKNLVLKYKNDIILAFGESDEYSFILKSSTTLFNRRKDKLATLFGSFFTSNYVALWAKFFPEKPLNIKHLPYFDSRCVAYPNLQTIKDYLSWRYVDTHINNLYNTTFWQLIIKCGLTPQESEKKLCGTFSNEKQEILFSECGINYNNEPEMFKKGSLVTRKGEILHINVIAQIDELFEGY

[2] = molecular target: T1, yThg1 (yeast Thg1, tRNA^His guanylyltransferase); assay: single-turnover adenylylation kinetics, […]'-32P tRNA; assay type: biochemical; conditions: read-out: KDapp,NTP, adenylylation step, 15 μM enzyme, 10 mM MgCl2, pH 6.0, room temperature

| Kd [1] [µM] | Kd [2] [µM] | Compound |
| --- | --- | --- |
| 21 ± 4 |  | Nc1nc2c(ncn2[C@@H]2O[C@H](COP(=O)(O)OP(=O)(O)OP(=O)(O)O)[C@@H](O)[C@H]2O)c(=O)[nH]1 [GTP] |
|  | 360 ± 80 | Nc1ncnc2c1ncn2[C@@H]1O[C@H](COP(=O)(O)OP(=O)(O)OP(=O)(O)O)[C@@H](O)[C@H]1O [ATP] |
